Experimental data reported in PubChem BioAssay (NCI).
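These data come from cells grown in 96-well plates and exposed to compound for 48 hours at five concentrations. TGI denotes the concentration required for complete inhibition of growth.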

Experiments:
Assay in all cases: NCI tumour cell line growth inhibition, 48 h
U251 CNS = tested on: U251 CNS
OVCAR-3 ovarian = tested on: OVCAR-3 ovarian
NCI-H522 lung = tested on: NCI-H522 lung
HCT-15 colon = tested on: HCT-15 colon
MALME-3M melanoma = tested on: MALME-3M melanoma
HOP-92 NSCLC = tested on: HOP-92 NSCLC
DMS 114 small cell lung = tested on: DMS 114 small cell lung
K-562 leukemia = tested on: K-562 leukemia
UO-31 renal = tested on: UO-31 renal
DMS 273 small cell lung = tested on: DMS 273 small cell lung
SW-620 colon = tested on: SW-620 colon
SN12K1 renal = tested on: SN12K1 renal
RXF 393 renal = tested on: RXF 393 renal
P388 leukemia = tested on: P388 leukemia
MOLT-4 leukemia = tested on: MOLT-4 leukemia
XF 498 CNS = tested on: XF 498 CNS
HCC-2998 colon = tested on: HCC-2998 colon
SNB-19 CNS = tested on: SNB-19 CNS
NCI-H23 lung = tested on: NCI-H23 lung
KM20L2 colon = tested on: KM20L2 colon
OVCAR-4 ovarian = tested on: OVCAR-4 ovarian
UACC-257 melanoma = tested on: UACC-257 melanoma
SNB-78 CNS = tested on: SNB-78 CNS
SF-539 CNS = tested on: SF-539 CNS
SK-MEL-28 melanoma = tested on: SK-MEL-28 melanoma
CCRF-CEM leukemia = tested on: CCRF-CEM leukemia
HT29 colon = tested on: HT29 colon
COLO 205 colon = tested on: COLO 205 colon
HCT-116 colon = tested on: HCT-116 colon
EKVX NSCLC = tested on: EKVX NSCLC
SK-OV-3 ovarian = tested on: SK-OV-3 ovarian
SK-MEL-5 melanoma = tested on: SK-MEL-5 melanoma
M19-MEL melanoma = tested on: M19-MEL melanoma
HOP-62 NSCLC = tested on: HOP-62 NSCLC
SF-295 CNS = tested on: SF-295 CNS
SN12C renal = tested on: SN12C renal
RPMI-8226 leukemia = tested on: RPMI-8226 leukemia
A549 NSCLC = tested on: A549 NSCLC
SF-268 CNS = tested on: SF-268 CNS
A498 renal = tested on: A498 renal
OVCAR-5 ovarian = tested on: OVCAR-5 ovarian
LOX IMVI melanoma = tested on: LOX IMVI melanoma
DLD-1 colon = tested on: DLD-1 colon
P388/ADR leukemia = tested on: P388/ADR leukemia
KM12 colon = tested on: KM12 colon
UACC-62 melanoma = tested on: UACC-62 melanoma
NCI-H460 lung = tested on: NCI-H460 lung
OVCAR-8 ovarian = tested on: OVCAR-8 ovarian
MCF7 breast = tested on: MCF7 breast
CAKI-1 renal = tested on: CAKI-1 renal
SNB-75 CNS = tested on: SNB-75 CNS
HL-60(TB) leukemia = tested on: HL-60(TB) leukemia
HOP-18 NSCLC = tested on: HOP-18 NSCLC
SK-MEL-2 melanoma = tested on: SK-MEL-2 melanoma
IGROV1 ovarian = tested on: IGROV1 ovarian
NCI/ADR-RES ovarian = tested on: NCI/ADR-RES ovarian
NCI-H226 lung = tested on: NCI-H226 lung

Measured: TGI

CN(C)C(CN)CC1=C(CC(CN)N(C)C)CCC1 (configuration not stated)
> 100 µM: all assays above
